Data: patent US4613355A, “Antibiotic having herbicidal activity” (Satoshi Omura, priority 1983, dated 1986)
Structures can show the parent of a compound that is named as a salt.

Legend:
Assay type in all cases: in vivo
Digitaria adscendens = experiment: Pre-emergence test (Example 6); settings: 10 days
Experimental: Upland soil was put in a pot of 10 cm diameter and the seeds of Digitaria adscendens were sown in the soil surface at a depth of 1 cm. After compacting the soil surface gently, the soil was sprayed evenly with solutions of Phosalacine sodium salt dissolved at different concentrations in water (each 5 ml). 10 days later, the number of emerged seedlings was counted and the percentage inhibition of emergence was evaluated by comparison with untreated plots. For comparison, a similar test was carried out using glyphosate (monosodium salt) instead of Phosalacine salt. The results shown in the following Table indicate that the pre-emergence effect of Phosalacine was better than that of glyphosate.

Raphanus sativus = experiment: Foliage treatment (Example 8); design: key: 0 indicates no effect; 5 indicates complete kill; settings: Plant No. 32 Raphanus sativus
Experimental: (§1) Aqueous solutions of Phosalacine (Na salt) at different concentrations were applied at a rate of 1500 liters per hectare to naturally occurring plants or plants which were cultured on plates as shown in the following Table at certain stages of growth. […] One month after the foliage treatment, the inhibition of regrowth of the plants was visually investigated.

Rumex obtusifolius = experiment: Foliage treatment (Example 8); design: key: 0 indicates no effect; 5 indicates complete kill; settings: Plant No. 14 Rumex obtusifolius
Experimental: as §1

Castanea crenata [1] = experiment: Foliage treatment of naturally growing weeds and brush (Example 9); design: key: 0 indicates no effect; 5 indicates complete kill; settings: Plant No. 8 Castanea crenata, One month
Source text: (§2) Aqueous solutions of Phosalacine (Na salt) at different concentrations and 0.1% of octylphenylpolyoxy ethanol as surfactant were applied to the area where various weeds and brush were naturally growing at a rate of 1500 liter per hectare. One month after the foliage treatment, damage to weeds and brush was visually assessed on a scale of from 0 to 5 where 0 indicates no effect and 5 indicates complete kill as hereinbefore defined.

Pteridium aquilinum = experiment: as above; design: key: 0 indicates no effect; 5 indicates complete kill; settings: Plant No. 20 Pteridium aquilinum, One month
Source text: as §2

Rubus palmatus = experiment: as above; design: key: 0 indicates no effect; 5 indicates complete kill; settings: Plant No. 18 Rubus palmatus, One month
Source text: as §2

Smilax china = experiment: as above; design: key: 0 indicates no effect; 5 indicates complete kill; settings: Plant No. 17 Smilax china, One month
Source text: as §2

Viburnum dilatatum = experiment: as above; design: key: 0 indicates no effect; 5 indicates complete kill; settings: Plant No. 21 Viburnum dilatatum, One month
Source text: as §2

Zanthoxylum piperitum = experiment: as above; design: key: 0 indicates no effect; 5 indicates complete kill; settings: Plant No. 19 Zanthoxylum piperitum, One month
Source text: as §2

[2] = tested on: various weeds and brush (overall evaluation); experiment: as above; design: key: 0 indicates no effect; 5 indicates complete kill; settings: OE overall evaluation, One month
Source text: as §2

Castanea crenata [3] = experiment: Foliage treatment of woody plants (Example 10); design: key: 0 indicates no effect; 5 indicates complete kill; settings: Plant No. 8 Castanea crenata
Source text: (§3) Aqueous solutions containing Phosalacine (Na salt) at different concentrations and 0.1% of octylphenylpolyoxy ethanol as surfactant were applied at a rate of 1500 liter per hectare to woody plants of about 60-70 cm in height. 7 and 14 days after the foliage treatment, damage to the plants was visually assessed on a scale of from 0 to 5 (cf. Example 7).

Larix leptolepis = experiment: Foliage treatment of woody plants (Example 10); design: key: 0 indicates no effect; 5 indicates complete kill; settings: Plant No. 23 Larix leptolepis
Source text: as §3

Picea densiflora = experiment: Foliage treatment of woody plants (Example 10); design: key: 0 indicates no effect; 5 indicates complete kill; settings: Plant No. 22 Picea densiflora
Source text: as §3

Chamaecyparis obtusa = experiment: Foliage treatment of woody plants (Example 10); design: key to damage to the plants, scale 0 to 5: 0 indicates no effect; 5 indicates complete kill; settings: CH Chamaecyparis obtusa
Source text: as §3

Cryptomeria japonica = experiment: Foliage treatment of woody plants (Example 10); design: key to damage to the plants, scale 0 to 5: 0 indicates no effect; 5 indicates complete kill; settings: CP Cryptomeria japonica
Source text: as §3

CC(C)C[C@H](NC(=O)[C@H](C)NC(=O)[C@@H](N)CCP(C)(=O)O)C(=O)O [Phosalacine (Na salt)]
Percent inhibition of emergence (Digitaria adscendens; 500 g/ha): 80% | Percent inhibition of emergence (Digitaria adscendens; 1000 g/ha): 100% | Percent inhibition of emergence (Digitaria adscendens; 2500 g/ha): 100% | damage to the plants, scale 0 to 5 (Raphanus sativus; 0.05%, 7 days): 3 | damage to the plants, scale 0 to 5 (Raphanus sativus; 0.05%, 14 days): 4 | damage to the plants, scale 0 to 5 (Raphanus sativus; 0.1%, 7 days): 5 | damage to the plants, scale 0 to 5 (Raphanus sativus; 0.1%, 14 days): 5 | damage to the plants, scale 0 to 5 (Rumex obtusifolius; 0.05%, 7 days): 3 | damage to the plants, scale 0 to 5 (Rumex obtusifolius; 0.05%, 14 days): 4 | damage to the plants, scale 0 to 5 (Rumex obtusifolius; 0.1%, 7 days): 5 | damage to the plants, scale 0 to 5 (Rumex obtusifolius; 0.1%, 14 days): 5 | damage to weeds and brush, scale 0 to 5 (Castanea crenata [1]; 0.05%): 3 | damage to weeds and brush, scale 0 to 5 (Castanea crenata [1]; 0.1%): 5 | damage to weeds and brush, scale 0 to 5 (Castanea crenata [1]; 0.2%): 5 | damage to weeds and brush, scale 0 to 5 (Pteridium aquilinum; 0.05%): 3 | damage to weeds and brush, scale 0 to 5 (Pteridium aquilinum; 0.1%): 5 | damage to weeds and brush, scale 0 to 5 (Pteridium aquilinum; 0.2%): 5 | damage to weeds and brush, scale 0 to 5 (Rubus palmatus; 0.05%): 3 | damage to weeds and brush, scale 0 to 5 (Rubus palmatus; 0.1%): 5 | damage to weeds and brush, scale 0 to 5 (Rubus palmatus; 0.2%): 5 | damage to weeds and brush, scale 0 to 5 (Smilax china; 0.05%): 3 | damage to weeds and brush, scale 0 to 5 (Smilax china; 0.1%): 5 | damage to weeds and brush, scale 0 to 5 (Smilax china; 0.2%): 5 | damage to weeds and brush, scale 0 to 5 (Viburnum dilatatum; 0.05%): 3 | damage to weeds and brush, scale 0 to 5 (Viburnum dilatatum; 0.1%): 5 | damage to weeds and brush, scale 0 to 5 (Viburnum dilatatum; 0.2%): 5 | damage to weeds and brush, scale 0 to 5 (Zanthoxylum piperitum; 0.05%): 3 | damage to weeds and brush, scale 0 to 5 (Zanthoxylum piperitum; 0.1%): 5 | damage to weeds and brush, scale 0 to 5 (Zanthoxylum piperitum; 0.2%): 5 | damage to weeds and brush, scale 0 to 5 ([2]; 0.05%): 3 | damage to weeds and brush, scale 0 to 5 ([2]; 0.1%): 5 | damage to weeds and brush, scale 0 to 5 ([2]; 0.2%): 5 | damage to the plants, scale 0 to 5 (Castanea crenata [3]; 0.125%, 7 days): 5 | damage to the plants, scale 0 to 5 (Castanea crenata [3]; 0.125%, 14 days): 5 | damage to the plants, scale 0 to 5 (Castanea crenata [3]; 0.25%, 7 days): 5 | damage to the plants, scale 0 to 5 (Castanea crenata [3]; 0.25%, 14 days): 5 | damage to the plants, scale 0 to 5 (Castanea crenata [3]; 0.5%, 7 days): 5 | damage to the plants, scale 0 to 5 (Castanea crenata [3]; 0.5%, 14 days): 5 | damage to the plants, scale 0 to 5 (Larix leptolepis; 0.125%, 7 days): 4 | damage to the plants, scale 0 to 5 (Larix leptolepis; 0.125%, 14 days): 5 | damage to the plants, scale 0 to 5 (Larix leptolepis; 0.25%, 7 days): 4 | damage to the plants, scale 0 to 5 (Larix leptolepis; 0.25%, 14 days): 5 | damage to the plants, scale 0 to 5 (Larix leptolepis; 0.5%, 7 days): 4 | damage to the plants, scale 0 to 5 (Larix leptolepis; 0.5%, 14 days): 5 | damage to the plants, scale 0 to 5 (Picea densiflora; 0.125%, 7 days): 4 | damage to the plants, scale 0 to 5 (Picea densiflora; 0.125%, 14 days): 5 | damage to the plants, scale 0 to 5 (Picea densiflora; 0.25%, 7 days): 4 | damage to the plants, scale 0 to 5 (Picea densiflora; 0.25%, 14 days): 5 | damage to the plants, scale 0 to 5 (Picea densiflora; 0.5%, 7 days): 4 | damage to the plants, scale 0 to 5 (Picea densiflora; 0.5%, 14 days): 5 | damage to the plants, scale 0 to 5 (Chamaecyparis obtusa; 0.125%, 7 days): 0 | damage to the plants, scale 0 to 5 (Chamaecyparis obtusa; 0.125%, 14 days): 0 | damage to the plants, scale 0 to 5 (Chamaecyparis obtusa; 0.25%, 7 days): 0 | damage to the plants, scale 0 to 5 (Chamaecyparis obtusa; 0.25%, 14 days): 0 | damage to the plants, scale 0 to 5 (Chamaecyparis obtusa; 0.5%, 7 days): 0 | damage to the plants, scale 0 to 5 (Chamaecyparis obtusa; 0.5%, 14 days): 0 | damage to the plants, scale 0 to 5 (Cryptomeria japonica; 0.125%, 7 days): 0 | damage to the plants, scale 0 to 5 (Cryptomeria japonica; 0.125%, 14 days): 0 | damage to the plants, scale 0 to 5 (Cryptomeria japonica; 0.25%, 7 days): 0 | damage to the plants, scale 0 to 5 (Cryptomeria japonica; 0.25%, 14 days): 1 | damage to the plants, scale 0 to 5 (Cryptomeria japonica; 0.5%, 7 days): 0 | damage to the plants, scale 0 to 5 (Cryptomeria japonica; 0.5%, 14 days): 2
